Test systems include HOP-62; OVCAR-5; OVCAR-3; TK-10; SF-268; MDA-MB-231; CCRF-CEM; BT-549; UACC-257; 786-0; DU-145; SNB-75; MCF7; MOLT-4; MDA-N; T47D; Malme-3M; NCI-H460; CAKI-1; NCI-H226.
Holding throughout (assay): DTP human tumour cell line panel, 48 h

We go through 11 compounds from ChEMBL document CHEMBL1201862, “PubChem BioAssay data set” (2004).

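Where inhibition never reached the appropriate level, the endpoint shown equals the highest concentration tested. Otherwise, values were interpolated linearly from a five-concentration, 48-hour dose response in 96-well plates. GI50 marks 50% less growth.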 The source made the active and inactive calls. Cut-off read from the data, not from the text of the source: active = GI50 up to about 1.1 µM and inactive = higher.

For `O=c1[nH]nc(Cc2ccccc2)n1-n1cnnc1`, the GI50 in the assay on HOP-62, in the assay with OVCAR-5, with OVCAR-3, with TK-10, with SF-268 and in the assay with MDA-MB-231 was > 100 µM (inactive) in each case. Also, the GI50 with CCRF-CEM, in the assay with BT-549, in the assay with UACC-257, in the assay on 786-0, in the assay with DU-145 and in the assay on SNB-75 was > 100 µM (inactive) throughout. Moreover, the GI50 in the assay on MCF7, in the assay on MOLT-4 and in the assay on MDA-N was > 100 µM (inactive) throughout.
As to `CO[C@]12CC(=O)C3(C(C[C@H]4CC5CCC6=CC(=O)CC[C@]6(OC(C)=O)C5C[C@@]43C)C1)C1C[C@H]3[C@@H]4CCC5=CC(=O)CC[C@]5(OC(C)=O)[C@H]4CC[C@]3(C)C12` (stereo partly drawn), the GI50 with HOP-62 is > 100 µM (inactive); in the assay on OVCAR-5, > 100 µM (inactive); in the assay on OVCAR-3, > 100 µM (inactive); in the assay on TK-10, > 100 µM (inactive); in the assay on SF-268 it was > 100 µM (inactive); with MDA-MB-231 it was 27.5 µM (inactive). Further, the GI50 with CCRF-CEM, in the assay on T47D, in the assay with UACC-257, in the assay with 786-0, in the assay with Malme-3M and with DU-145 was > 100 µM (inactive) in each case. For the same compound, the GI50 was > 100 µM (inactive) in the assay with SNB-75; > 100 µM (inactive) with NCI-H460; > 100 µM (inactive) in the assay with MCF7; > 100 µM (inactive) in the assay on MOLT-4; > 100 µM (inactive) in the assay with CAKI-1; 58.2 µM (inactive) in the assay on MDA-N.
Turning to `CCOc1ccc(/N=N/c2ccc(-c3ccc(/N=N/c4c(O)ccc5cc(S(=O)(=O)O)cc(S(=O)(=O)O)c45)cc3)cc2)cc1`, the GI50 in the assay on HOP-62, in the assay on OVCAR-5, in the assay on OVCAR-3, with TK-10, in the assay with SF-268 and with MDA-MB-231 was > 100 µM (inactive) each time. In addition, the GI50 in the assay with CCRF-CEM is > 100 µM (inactive); in the assay with BT-549, > 100 µM (inactive); with UACC-257, > 100 µM (inactive); with NCI-H226 it was > 100 µM (inactive); with 786-0 it was > 100 µM (inactive); in the assay on Malme-3M, 18.5 µM (inactive). The GI50 in the assay on NCI-H460, with MCF7, in the assay with MOLT-4 and in the assay on CAKI-1 was > 100 µM (inactive) in each case.
`O=Cc1ccc2c(c1)CC1(C2)Cc2ccc(C=O)cc2C1`: the GI50 is 14.7 µM (inactive) in the assay with HOP-62; > 77.1 µM (inactive) with OVCAR-5; 13.9 µM (inactive) in the assay on OVCAR-3; 8.81 µM (inactive) in the assay with TK-10; 13.4 µM (inactive) in the assay with SF-268; 12.2 µM (inactive) with MDA-MB-231. Besides, the GI50 in the assay on CCRF-CEM was 1.68 µM (inactive); with T47D, 25.8 µM (inactive); in the assay with UACC-257 it was 18.8 µM (inactive); in the assay with NCI-H226, 22.8 µM (inactive); in the assay on 786-0, 7.45 µM (inactive); with Malme-3M, 20 µM (inactive). Moreover, the GI50 in the assay with DU-145 is 35.5 µM (inactive); with SNB-75, 61.8 µM (inactive); in the assay with NCI-H460, 11.6 µM (inactive); with MCF7, 31.8 µM (inactive); in the assay on MOLT-4, 2.77 µM (inactive); in the assay on CAKI-1, 44.9 µM (inactive). The GI50 in the assay with MDA-N was 2.45 µM (inactive).
For the compound `CSc1nncc(-c2cc3c(c(SC)n2)CCCC3)n1`, the GI50 is 30.5 µM (inactive) in the assay on HOP-62; > 100 µM (inactive) in the assay on OVCAR-5; > 100 µM (inactive) in the assay with OVCAR-3; > 100 µM (inactive) in the assay with TK-10; 26.9 µM (inactive) in the assay on SF-268; > 100 µM (inactive) in the assay on MDA-MB-231. In addition, the GI50 in the assay on CCRF-CEM, in the assay on BT-549, with UACC-257, in the assay on NCI-H226, in the assay with 786-0 and in the assay with DU-145 was > 100 µM (inactive) each time. Also, the GI50 in the assay on SNB-75 is 60.7 µM (inactive); with NCI-H460, > 100 µM (inactive); in the assay with MOLT-4, > 100 µM (inactive); in the assay on CAKI-1 it was 61.5 µM (inactive); in the assay on MDA-N, > 100 µM (inactive).
In the case of `COC1(CC[C@@H](C)COC2OC(CO)C(O)C(O)C2O)OC2C[C@H]3[C@@H]4CC[C@H]5C[C@@H](OC6OC(CO)C(OC7OC(CO)C(O)C(O)C7O)C(O)C6OC6OC(C)C(O)C(O)C6O)[C@H](O)C[C@]5(C)[C@H]4CC[C@]3(C)C2[C@@H]1C` (stereo partly drawn), the GI50 in the assay with HOP-62 is 1.89 µM (inactive); in the assay on OVCAR-5, 2.17 µM (inactive); in the assay with OVCAR-3 it was 1.82 µM (inactive); in the assay on TK-10, 2.12 µM (inactive); with SF-268, 2.07 µM (inactive); with MDA-MB-231 it was 1.95 µM (inactive). Besides, the GI50 is 1.88 µM (inactive) in the assay on CCRF-CEM; 3.04 µM (inactive) in the assay with T47D; 1.97 µM (inactive) in the assay with UACC-257; 2.22 µM (inactive) in the assay on NCI-H226; 2.02 µM (inactive) with 786-0; 1.85 µM (inactive) with Malme-3M. The GI50 in the assay on DU-145 was 2.01 µM (inactive); in the assay with SNB-75 it was 1.77 µM (inactive); with NCI-H460, 3.08 µM (inactive); in the assay with MCF7, 2.88 µM (inactive); in the assay on MOLT-4, 2.58 µM (inactive); in the assay with CAKI-1, 2.01 µM (inactive). Also, the GI50 with MDA-N is 2.19 µM (inactive).
With `NCCCN1CCN(CCCNc2ccc3ncn4c5ccccc5c(=O)c2c34)CC1`, the GI50 in the assay on HOP-62 was 1.71 µM (inactive); in the assay on OVCAR-5, 3.61 µM (inactive); with OVCAR-3 it was 4.07 µM (inactive); with TK-10, 4.2 µM (inactive); in the assay on SF-268 it was 1.26 µM (inactive); with MDA-MB-231, 0.783 µM (active). For the same compound, the GI50 was 1.41 µM (inactive) in the assay with CCRF-CEM; 3.02 µM (inactive) in the assay on T47D; 5.97 µM (inactive) in the assay with UACC-257; 1.29 µM (inactive) in the assay on 786-0; 2.36 µM (inactive) in the assay on Malme-3M; 1.46 µM (inactive) in the assay on DU-145. Also, the GI50 with SNB-75 is 3.13 µM (inactive); in the assay on NCI-H460, 1.31 µM (inactive); with MCF7, 1.32 µM (inactive); in the assay with MOLT-4, 1.11 µM (active); with CAKI-1 it was 1.14 µM (inactive); in the assay with MDA-N, 1.45 µM (inactive).
In the case of `O=C(Cn1cc(-c2ccccc2)nn1)NC1CCCC1`, the GI50 in the assay with HOP-62, in the assay with OVCAR-5, with TK-10, in the assay on SF-268, in the assay on MDA-MB-231 and in the assay on CCRF-CEM was > 100 µM (inactive) each time. Further, the GI50 with BT-549, in the assay with UACC-257, with NCI-H226, with 786-0, in the assay on Malme-3M and with DU-145 was > 100 µM (inactive) in each case. Further, the GI50 is 56.2 µM (inactive) with SNB-75; > 100 µM (inactive) in the assay with NCI-H460; > 100 µM (inactive) in the assay on MCF7; > 100 µM (inactive) in the assay with MOLT-4; > 100 µM (inactive) in the assay with CAKI-1.
Take `COCOc1ccc(C(=O)Oc2cccc3c2OC(C)(C)O3)c(OCOC)c1`: the GI50 in the assay on HOP-62 is > 100 µM (inactive); in the assay on OVCAR-5, > 100 µM (inactive); with OVCAR-3, > 100 µM (inactive); in the assay with TK-10, > 100 µM (inactive); in the assay with SF-268, 35.6 µM (inactive); in the assay on MDA-MB-231, 15.7 µM (inactive). The GI50 in the assay on CCRF-CEM was 22.1 µM (inactive); in the assay with T47D it was 37.8 µM (inactive); with UACC-257, > 100 µM (inactive); with NCI-H226, > 100 µM (inactive); in the assay on 786-0, > 100 µM (inactive); in the assay with DU-145, > 100 µM (inactive). Also, the GI50 is 74.5 µM (inactive) in the assay on SNB-75; 56 µM (inactive) in the assay with NCI-H460; 33.2 µM (inactive) in the assay on MCF7; 53.2 µM (inactive) in the assay with MOLT-4; > 100 µM (inactive) in the assay with CAKI-1; > 100 µM (inactive) with MDA-N.
Consider `C=CCO[C@]1(CC=C)C(=O)C(=O)OC1C1COC(C)(C)O1` (stereo partly drawn), for which the GI50 in the assay on HOP-62 was > 100 µM (inactive); in the assay on OVCAR-5, > 100 µM (inactive); in the assay with OVCAR-3, 45.7 µM (inactive); in the assay on SF-268 it was 26.6 µM (inactive); in the assay on MDA-MB-231, 41.6 µM (inactive); in the assay on CCRF-CEM, 29.4 µM (inactive). Also, the GI50 in the assay with T47D is 34.8 µM (inactive); in the assay with UACC-257, 30 µM (inactive); with NCI-H226, > 100 µM (inactive); in the assay on 786-0 it was 35.1 µM (inactive); with Malme-3M, 17.3 µM (inactive); in the assay with DU-145, > 100 µM (inactive). For the same compound, the GI50 was 27.7 µM (inactive) with SNB-75; 65.2 µM (inactive) in the assay with NCI-H460; 19.1 µM (inactive) with MCF7; 31.8 µM (inactive) in the assay with MOLT-4; 27.1 µM (inactive) in the assay on CAKI-1; 36 µM (inactive) in the assay on MDA-N.
On to `C#CC(O)/C=C/C(O)CCCC(O)CC#CC(O)C#CCCCCC(O)/C=C/CCCC(=O)CCCCCCCCCCCCCCCC(O)C(O)C#CC(=O)O` (stereo not drawn), for which the GI50 in the assay on HOP-62, with OVCAR-5, in the assay with TK-10, with SF-268, in the assay on MDA-MB-231 and with CCRF-CEM was > 25 µM (inactive) each time. For the same compound, the GI50 is 14.2 µM (inactive) with T47D; > 25 µM (inactive) with UACC-257; > 25 µM (inactive) in the assay on NCI-H226; > 25 µM (inactive) in the assay with 786-0; > 25 µM (inactive) in the assay on Malme-3M; > 25 µM (inactive) in the assay with DU-145. For the same compound, the GI50 with SNB-75, in the assay with NCI-H460, in the assay on MCF7, in the assay with MOLT-4, with CAKI-1 and in the assay on MDA-N was > 25 µM (inactive) each time.

As a reminder, the GI50 is the concentration that inhibits growth by half.
